Assay results published in patent US9113629B2, “4-amino-6-(4-substituted-phenyl)-picolinates and 6-amino-2-(4-substituted-phenyl)-pyrimidine-4-carboxylates and their use as herbicides” (DOW AGROSCIENCES LLC, priority 2013, dated 2015).

Key:
[1] = test system: LOLSS: ryegrass including, Italian ryegrass (Lolium multiflorum), rigid ryegrass (Lolium rigidum), annual ryegrass (Lolium multiflorum subsp. Gaudini); experiment: Post-emergent Test III, herbicidal activity in wheat and barley; format: in vivo; settings: probit analysis, 21 days after application; for GR50 LOLSS: dose for growth reduction of 50 percent; for GR80 LOLSS: dose for growth reduction of 80 percent
Description: (§1) Post-emergent Test III. Seeds of the desired test plant species were planted in Sun Gro MetroMix® 306 planting mixture, which typically has a pH of 6.0 to 6.8 and an organic matter content of about 30 percent, in plastic pots with a surface area of 103.2 square centimeters (cm^2). When required to ensure good germination and healthy plants, a fungicide treatment and/or other chemical or physical treatment was applied. The plants were grown for 7-36 days (d) in a greenhouse with an approximate 14 hour (h) photoperiod which was maintained at about 18° C. during the day and 17° C. during the night. Nutrients and water were added on a regular basis and supplemental lighting was provided with overhead metal halide 1000-Watt lamps as necessary. The plants were employed for testing when they reached the second or third true leaf stage.
(§2) A weighed amount, determined by the highest rate to be tested, of each test compound was placed in a 25 mL glass vial and was dissolved in 4 mL of a 97:3 v/v mixture of acetone and DMSO to obtain concentrated stock solutions. […] The concentrated stock solutions obtained were diluted with 20 mL of an aqueous mixture containing acetone, water, isopropyl alcohol, DMSO, Agri-Dex crop oil concentrate, and X-77 surfactant in a 48:39:10:1.5:1.5:0.02 v/v ratio to obtain spray solutions containing the highest application rates. Additional application rates were obtained by serial dilution of 12 mL of the high rate solution into a solution containing 2 mL of 97:3 v/v mixture of acetone and DMSO and 10 mL of an aqueous mixture containing acetone, water, isopropyl alcohol, DMSO, Agri-Dex crop oil concentrate, and X-77 surfactant in a 48:39:10:1.5:1.5:0.02 v/v ratio to obtain ½×, ¼×, ⅛× and 1/16× rates of the high rate. Compound requirements are based upon a 12 mL application volume at a rate of 187 liters per hectare (L/ha). Formulated compounds were applied to the plant material with an overhead Mandel track sprayer equipped with 8002E nozzles calibrated to deliver 187 L/ha over an application area of 0.503 square meters at a spray height of 18 inches (43 cm) above the average plant canopy height. Control plants were sprayed in the same manner with the solvent blank.
(§3) The treated plants and control plants were placed in a greenhouse as described above and watered by subirrigation to prevent wash-off of the test compounds. After 21 d, the condition of the test plants as compared with that of the untreated plants was determined visually and scored on a scale of 0 to 100 percent where 0 corresponds to no injury and 100 corresponds to complete kill.
(§4) By applying the well-accepted probit analysis as described by J. Berkson in Journal of the American Statistical Society, 48, 565 (1953) and by D. Finney in “Probit Analysis” Cambridge University Press (1952), herbicidal injury of a specific compound at various rates can be used to calculate GR20, GR50, GR80 and GR90 values, which are defined as growth reduction factors that correspond to the effective dose of herbicide required to provide plant growth reduction (GR) of 20 percent, 50 percent, 80 percent and 90 percent, respectively. Probit analysis was applied to data collected from multiple dose rates of individual compounds utilizing the procedures explained in the following examples. The analysis of those dose rates is captured in the following tables.

[2] = as above; format: in vivo, Lolium multiflorum, Lolium rigidum; settings: Lolium multiflorum, post-emergence, 504 h, read-out: Visual Growth Reduction (%) 21 Days After Application LOLSS; for pest or weed control at 35 g/ha: 35 g ai/ha; for pest or weed control at 70 g/ha: 70 g ai/ha; for pest or weed control at 140 g/ha: 140 g ai/ha
Description: as §1, §2, §3, §4

[3] = test system: KCHSC: kochia (Kochia scoparia); experiment: as above; format: in vivo; settings: for pest or weed control at 35 g/ha / pest or weed control at 70 g/ha / pest or weed control at 140 g/ha: Bassia scoparia, post-emergence, 504 h, read-out: Visual Growth Reduction (%) 21 Days After Application KCHSC; for pest or weed control at 35 g/ha: 35 g ai/ha; for pest or weed control at 70 g/ha: 70 g ai/ha; for pest or weed control at 140 g/ha: 140 g ai/ha; for GR50 KCHSC / GR80 KCHSC: probit analysis, 21 days after application; for GR50 KCHSC: dose for growth reduction of 50 percent; for GR80 KCHSC: dose for growth reduction of 80 percent
Description: as §1, §2, §3, §4

[4] = test system: APESV: bentgrass (Apera spica-venti); experiment: as above; format: in vivo; settings: for pest or weed control at 35 g/ha / pest or weed control at 70 g/ha / pest or weed control at 140 g/ha: Apera spica-venti, post-emergence, 504 h, read-out: Visual Growth Reduction (%) 21 Days After Application APESV; for pest or weed control at 35 g/ha: 35 g ai/ha; for pest or weed control at 70 g/ha: 70 g ai/ha; for pest or weed control at 140 g/ha: 140 g ai/ha; for GR50 APESV / GR80 APESV: probit analysis, 21 days after application; for GR50 APESV: dose for growth reduction of 50 percent; for GR80 APESV: dose for growth reduction of 80 percent
Description: as §1, §2, §3, §4

[5] = test system: MATSS: scented mayweed (Matricaria chamomilla), pineappleweed (Matricaria matricarioides); experiment: as above; format: in vivo; settings: for pest or weed control at 35 g/ha / pest or weed control at 70 g/ha / pest or weed control at 140 g/ha: Matricaria chamomilla, post-emergence, 504 h, read-out: Visual Growth Reduction (%) 21 Days After Application MATSS; for pest or weed control at 35 g/ha: 35 g ai/ha; for pest or weed control at 70 g/ha: 70 g ai/ha; for pest or weed control at 140 g/ha: 140 g ai/ha; for GR50 MATSS / GR80 MATSS: probit analysis, 21 days after application; for GR50 MATSS: dose for growth reduction of 50 percent; for GR80 MATSS: dose for growth reduction of 80 percent
Description: as §1, §2, §3, §4

[6] = test system: HORSS: barley, including spring and winter (Hordeum vulgare); experiment: as above; format: in vivo
Description: as §1, §2, §3, §4

[7] = test system: TRZSS: wheat, including spring and winter (Triticum aestivum); experiment: as above; format: in vivo
Description: as §1, §2, §3, §4

[8] = test system: SETVI: green foxtail (Setaria viridis); experiment: as above; format: in vivo
Description: as §1, §2, §3, §4

[9] = probit analysis, dose for growth reduction of 20 percent, 21 days after application, crop

Compound | GR50 LOLSS [1] | GR80 LOLSS [1] | pest or weed control at 35 g/ha [2] | pest or weed control at 70 g/ha [2] | pest or weed control at 140 g/ha [2] | pest or weed control at 35 g/ha [3] | pest or weed control at 70 g/ha [3] | pest or weed control at 140 g/ha [3] | GR50 KCHSC [3] | GR80 KCHSC [3] | pest or weed control at 35 g/ha [4] | pest or weed control at 70 g/ha [4] | pest or weed control at 140 g/ha [4] | GR50 APESV [4] | GR80 APESV [4] | pest or weed control at 35 g/ha [5] | pest or weed control at 70 g/ha [5] | pest or weed control at 140 g/ha [5] | GR50 MATSS [5] | GR80 MATSS [5] | further results
C=Cc1c(C(=O)O)nc(-c2ccc(Cl)c(F)c2)c(F)c1N [Compound 214] | 59 g ai/ha | >140 g ai/ha | 30 to 44% | 45 to 59% | 85 to 94% | 75 to 84% | 85 to 94% | 95 to 100% | 7 g ai/ha | 52 g ai/ha | 0 to 29% | 30 to 44% | 45 to 59% | 110 g ai/ha | >140 g ai/ha | 75 to 84% | 85 to 94% | 85 to 94% | 4 g ai/ha | 41 g ai/ha | 
Nc1c(F)c(-c2ccc(Br)c(F)c2F)nc(C(=O)O)c1Cl [Compound 147] | 71 g ai/ha | >140 g ai/ha | 30 to 44% | 45 to 59% | 60 to 74% | 85 to 94% | 95 to 100% | 85 to 94% | 4 g ai/ha | 19 g ai/ha | 85 to 94% | 85 to 94% | 85 to 94% | 5 g ai/ha | 16 g ai/ha | 95 to 100% | 95 to 100% | 95 to 100% | 6 g ai/ha | 14 g ai/ha | 
COC(=O)c1nc(-c2ccc(Br)c(F)c2F)c(F)c(N)c1Cl [Compound 109, methyl 4-amino-6-(4-bromo-2,3-difluorophenyl)-3-chloro-5-fluoropicolinate] | 34 g ai/ha | >140 g ai/ha | 45 to 59% | 45 to 59% |  | 85 to 94% | 85 to 94% |  | 3 g ai/ha | 19 g ai/ha | 85 to 94% | 85 to 94% |  | 1 g ai/ha | 6 g ai/ha | 30 to 44% | 45 to 59% |  | 72 g ai/ha | >140 g ai/ha | 
COC(=O)c1nc(-c2ccc(OC(F)F)cc2)c(F)c(N)c1Cl [Compound 85] |  |  | 0 to 29% | 0 to 29% | 0 to 29% | 0 to 29% | 0 to 29% | 0 to 29% | >140 g ai/ha | >140 g ai/ha | 0 to 29% | 0 to 29% | 0 to 29% | >140 g ai/ha | >140 g ai/ha | 0 to 29% | 0 to 29% | 0 to 29% | 88 g ai/ha | >140 g ai/ha | pest or weed control at 35 g/ha ([6]; Hordeum vulgare, post-emergence, 504 h, 35 g ai/ha, read-out: Visual Growth Reduction (%) 21 Days After Application HORSS): 0 to 29%; pest or weed control at 70 g/ha ([6]; Hordeum vulgare, post-emergence, 504 h, 70 g ai/ha, read-out: Visual Growth Reduction (%) 21 Days After Application HORSS): 30 to 44%; pest or weed control at 140 g/ha ([6]; Hordeum vulgare, post-emergence, 504 h, 140 g ai/ha, read-out: Visual Growth Reduction (%) 21 Days After Application HORSS): 60 to 74%; GR20 HORSS [6, 9]: 33 g ai/ha; pest or weed control at 35 g/ha ([7]; Triticum aestivum, post-emergence, 504 h, 35 g ai/ha, read-out: Visual Growth Reduction (%) 21 Days After Application TRZSS): 60 to 74%; pest or weed control at 70 g/ha ([7]; Triticum aestivum, post-emergence, 504 h, 70 g ai/ha, read-out: Visual Growth Reduction (%) 21 Days After Application TRZSS): 60 to 74%; pest or weed control at 140 g/ha ([7]; Triticum aestivum, post-emergence, 504 h, 140 g ai/ha, read-out: Visual Growth Reduction (%) 21 Days After Application TRZSS): 60 to 74%; GR20 TRZSS [7, 9]: 1 g ai/ha; pest or weed control at 35 g/ha ([8]; Setaria viridis, post-emergence, 504 h, 35 g ai/ha, read-out: Visual Growth Reduction (%) 21 Days After Application SETVI): 0 to 29%; pest or weed control at 70 g/ha ([8]; Setaria viridis, post-emergence, 504 h, 70 g ai/ha, read-out: Visual Growth Reduction (%) 21 Days After Application SETVI): 0 to 29%; pest or weed control at 140 g/ha ([8]; Setaria viridis, post-emergence, 504 h, 140 g ai/ha, read-out: Visual Growth Reduction (%) 21 Days After Application SETVI): 0 to 29%; GR50 SETVI ([8]; probit analysis, dose for growth reduction of 50 percent, 21 days after application): >140 g ai/ha; GR80 SETVI ([8]; probit analysis, dose for growth reduction of 80 percent, 21 days after application): >140 g ai/ha
COC(=O)c1nc(-c2ccc(C(F)F)cc2)c(F)c(N)c1Cl [Compound 209] | 93 g ai/ha | >140 g ai/ha | 0 to 29% | 30 to 44% |  | 60 to 74% | 85 to 94% |  | 12 g ai/ha | 42 g ai/ha | 0 to 29% | 0 to 29% |  | >140 g ai/ha | >140 g ai/ha | 0 to 29% | 0 to 29% |  | >140 g ai/ha | >140 g ai/ha | 
